Several values for one entry are separate records, joined by “and”; a condition that tells them apart may be missing. Equal entries are not always repeated. Entries after “also recorded” stand apart in the source; their conditions may differ. Structures can show the parent of a compound that is named as a salt. Where two headings read alike, the source gives them in different places. Marks after values point to notes of the source that are not given here.
Assays:
[1] = test system: SM preparations from the corpus gastric muscle; assay: Ex vivo bioelectrical activity of smooth muscle preparations, single sucrose gap method; set-up: species or system Wistar rats; details: 5 × 10^−5 M; for Amplitude of slow waves, Measured value / Amplitude of spike potentials, Measured value / Number of slow waves, Measured value / Number of spike potentials, Measured value: 10 min, n = 7, mean ± SEM; for effect on bioelectrical activity (slow waves, spike potentials): in words; for Changes in the membrane potential: base activity taken as 100%, ↑ depolarization, ↓ hyperpolarization
Method: Adult male Wistar rats weighing 280–300 g were used. Animals were housed in standard laboratory conditions (23 to 25 °C, 50–55% humidity, 12/12 h light/dark cycle), while food and water were provided ad libitum.
Circular SM preparations were dissected from the corpus gastric muscle (26–28 mm long and 0.8–0.9 mm wide; without mucosa). Two or three muscle strips were taken from the rat stomach. The number of SM preparations used for each data point is indicated by n. After dissection, the tissues must prevent loss of viability, so during the dissection, the tissues were systematically moistened with a solution (NaCl:KCl:CaCl2 in ratio 27.2:1.1:1) prepared at 4 °C.
The BEA of SM preparations was investigated by means of the single sucrose gap method with silver non-polarizable freshly chlorinated electrodes. The muscle strips were divided into 3 zones: two electrode sections were flushed with isotonic KCl solution and Krebs solution (pH 7.3), respectively, and separated by a sucrose layer of high electric resistance. Krebs contained the following (in mM): NaCl 120; KCl 5.9; CaCl2 2.5; MgCl2 1.2; NaH2PO4 1.2; NaHCO3 15.4; glucose 11.5. All the ingredients for this solution were of analytical grade and obtained from Merck (Darmstadt, Germany). Deionized water (18.2 mX/cm^2) was used thoroughly. The KCl solution is similar to the Krebs solution but with an equimolar substitution of NaCl with KCl. An isotonic sucrose solution, due to its very high specific resistance (about 10^6 Ω·cm), provides the best possible separation of the sucrose solution from the physiological solution in the “normal” pool, on the one hand, and the solution providing a zero value of the membrane potential in the pool with another recording electrode.
The inflow rate of each solution (Krebs, KCl, and isotonic sucrose solution) was controlled by a needle valve and continuously aerated with a mixture of 95% O2 and 5% CO2, and the temperature was maintained at 37 °C. A potential difference between the two end sections of the gap (control conditions) was achieved by means of silver non-polarizable, freshly chlorinated electrodes and after a 40-min period of adaptation and stabilization was accepted as the initial (control). The Krebs solution was changed several times during the adaptation period. The viability of the SM preparations was periodically tested by treatment with 1 × 10^−6 M ACh.
The membrane potential value was visualized by means of a Linseis recorder (Selb, Germany). A pair of measuring electrodes is located on both sides of the sucrose sections. The pH (pH 7.3; 37 °C) of the Krebs bathing solution was measured before each experiment by pH-meter HI5521 (Hanna Instruments Inc., Woonsocket, RI, USA). […]
The new substances were dissolved initially in dimethyl sulphoxide (DMSO) to prepare a 5 × 10^−2 M stock solution. Further dilutions were made in distilled deionized water and were applied by adding aliquots of their concentrated solutions to the tissue bath.

[2] = test system: 5-HT3 receptor; assay: Immunohistochemical analysis of 5-HT3 expression in gastric SM strips; set-up: species or system Wistar rats; key to 5-HT3 expression, 5-HT / 5-HT3 expression, Response to Compound: −: absent; +: low; ++: moderate; +++: strong; details: for 5-HT3 expression, Response to Compound: SM preparations incubated with the compound; for 5-HT3 expression in SM preparations: immunohistochemical staining after 1 h incubation, in words
Method: […] Then, each SM strip was fixed in 10% neutral buffer formalin for 24–48 h and submitted for standard processing with hematoxylin and eosin staining.
The SM fragments from a rat’s gastric wall were fixed in a 10% neutral formalin solution and embedded in paraffin. Paraffin sections of 5 μm thickness were subjected to hematoxylin and eosin (H-E) staining for histochemical analysis.
Sections of the SM fragments from the wall of a rat’s stomach with a thickness of 5 µm were deparaffinized, then subjected to antigenic detection of the epitopes with citrate buffer, and an endogenous peroxidase blockade was made with hydrogen […] 3%, a kit was used to block the endogenous biotin, and a reagent was used to block non-specific binding (Superblock, Scy Tek, Santa Cruz Biotech. Inc. Heidelberg, Germany) follows incubate for 24 h (at 4 °C) with monoclonal mouse anti-5-HT3, next incubated with a secondary antibody: biotinylated anti-rabbit for 10 min at room temperature. The reaction was visualized with 3,3′-diaminobenzidine tetrachloride and counterstained with Mayer’s hematoxylin.
A quantitative and statistical analysis of immunohistochemical reaction using the Olympus DP-Soft image system (version 4.1 for Windows) was carried out on a Microphot-SA (Nikon, Japan) microscope equipped with a Camedia-5050 Z digital camera (Olympus, Japan). The analysis was performed on sections from the SM strips from the stomach of Wistar rats (n = 6 for each group). Five sections of the SM strips were measured, and the percentage of cells expressing 5-HT3 in the circular and longitudinal layer of SM cells, as well as in the myenteric plexus of the stomach, was determined. Each antibody was analyzed for five fields, in each of them the average number of cells with positive unit area response at ×200 magnification.

[3] = MTT cell viability assay; type: cell-based; details: mouse, CCL-1 normal fibroblast cells, CCL-1, normal murine fibroblast cells, read-out: In vitro cytotoxicity (IC50)
Method: (§1) In order to evaluate the in vitro biocompatibility of the experimental compounds, a series of cell viability assays were performed against human malignant leukemic cell lines (LAMA-84, K-562) as well as normal murine fibroblast cells (CCL-1). All cell lines were purchased from the German Collection of Microorganisms and Cell Cultures (DSMZ GmbH, Braunschweig, Germany). Cell cultures were cultivated in a growth medium RPMI 1640 supplemented with 10% fetal bovine serum (FBS), 5% L-glutamine, and incubated under standard conditions of 37 °C and 5% humidified CO2 atmosphere.
(§2) The experimental design involved a number of cytotoxicity assays that measured cell growth inhibition by the newly synthesized compounds. Cell viability was evaluated using a standard MTT-based colorimetric assay. Exponential-phased cells were harvested and seeded (100 μL/well) in 96-well plates at the appropriate density (3 × 10^5) for the suspension cultures (LAMA-84 and K-562) and 1.5 × 10^5 for the adherent one (CCL-1). Cells were treated and incubated with various concentrations of the experimental compounds in the concentration range of 400-6.25 µM. After exposure time of 72 h, a filter-sterilized MTT substrate solution (5 mg/mL in PBS) was added to each well of the culture plate. A further 1–4 h incubation allowed for the formation of purple insoluble formazan precipitates. The latter were dissolved in isopropyl alcohol solution containing 5% formic acid prior to absorbance measurement at 550 nm using a microplate reader (Labexim LMR-1). Collected absorbance values were blanked against MTT and isopropanol solution and normalized to the mean value of the untreated control (100% cell viability). Semi-logarithmic “dose–response” curves were constructed and the half-inhibitory concentrations of the screened compounds against each tested cell line were calculated. Values of p ≤ 0.05 were considered statistically significant.

[4] = MTT cell viability assay; type: cell-based, human; details: human, ± SD, read-out: In vitro cytotoxicity (IC50)
Method: as §1, §2

[5] = test system: LAMA-84; assay: MTT cell viability assay; type: cell-based, human; details: LAMA-84, CML in blast crisis (bcr-abl+), 72 h, ± SD
Method: as §1, §2

[6] = test system: K-562; assay: MTT cell viability assay; type: cell-based, human; details: K-562, Blast phase CML (bcr-abl+), 72 h, ± SD
Method: as §1, §2

[7] = test system: Eighteen tested microorganisms (Gram-positive bacteria, Gram-negative bacteria, yeasts, fungi); assay: Antimicrobial activity, agar well diffusion method, whole panel; type: cell-based; details: whole panel of tested microorganisms, in words
Text: Eighteen tested microorganisms including five Gram-positive bacteria (Bacillus subtilis ATCC 6633, Bacillus amyloliquefaciens 4BCL-YT, Staphylococcus aureus ATCC 25923, Listeria monocytogenes NBIMCC 8632, Enterococcus faecalis ATCC 19433), five Gram-negative bacteria (Salmonella enteritidis ATCC 13076, Klebsiella sp.—clinical isolate, Escherichia coli ATCC 25922, Proteus vulgaris ATCC 6380, Pseudomonas aeruginosa ATCC 9027), two yeasts (Candida albicans NBIMCC 74, Saccharomyces cerevisiae ATCC 9763) and six fungi (Aspergillus niger ATCC 1015, Aspergillus flavus, Penicillium sp., Rhizopus sp., Mucor sp.—plant isolates, Fusarium moniliforme ATCC 38932) from the collection of the Department of Microbiology at the University of Food Technologies—Plovdiv, Bulgaria, were selected for the antimicrobial activity test.
The antimicrobial activity of the samples was determined by the agar well diffusion method. The tested bacteria B. subtilis and B. amyloliquefaciens were cultured on LBG agar at 30 °C. The test bacteria S. aureus, L. monocytogenes, E. faecalis, S. enteritidis, Klebsiella sp., E. coli, P. vulgaris and P. aeruginosa were cultured on LBG agar at 37 °C for 24 h. The yeast C. albicans was cultured on MEA at 37 °C, while S. cerevisiae was cultured on MEA at 30 °C for 24 h. The fungi A. niger, A. flavus, Penicillium sp., Rhizopus sp., Mucor sp., and F. moniliforme were grown on MEA at 30 °C for 7 days or until sporulation.
The inocula of the tested bacteria/yeasts were prepared by homogenization of a small amount of biomass in 5 mL of sterile 0.5% NaCl. […] The number of viable cells and fungal spores was determined using a bacterial counting chamber Thoma (Poly-Optik, GmbH, Bad Blankenburg, Germany). […] Next, the inoculated media were transferred in a quantity of 18 mL in sterile Petri plates (d = 90 mm) (Gosselin™, Hazebrouck, France) and allowed to harden. […]
The antimicrobial activity was determined by measuring the diameter of the inhibition zones around the wells on the 24th and 48th h of incubation. […]

[8] = K-562 cells (blast phase chronic myeloid leukemia), K-562, Blast phase CML (bcr-abl+)
[9] = LAMA-84, CML in blast crisis (bcr-abl+)

Compound | Amplitude of slow waves, Measured value [1] [mV] | Amplitude of spike potentials, Measured value [1] | Number of slow waves, Measured value [1] [min⁻¹] | Number of spike potentials, Measured value [1] | effect on bioelectrical activity (slow waves, spike potentials) [1] | Changes in the membrane potential [1] [%] | 5-HT3 expression, Response to Compound [2] | 5-HT3 expression in SM preparations [2] | IC50 at 72 h [3] [µM] | IC50 at 72 h [4, 8] [µM] | IC50 at 72 h [4, 9] [µM] | 5-HT3 expression, 5-HT ([2]; SM preparations incubated with 5-HT, one per compound series) | In vitro cytotoxicity (IC50) [5] | In vitro cytotoxicity (IC50) [6] | antimicrobial activity [7]
CC(C)C(Cc1ccccc1)NC(=O)c1ccccc1 (centres unmarked) [Compound 4b, N-(3-methyl-1-phenylbutan-2-yl)benzamide] | 5.09 ± 0.10 | 1.40 ± 0.12 mV | 4.50 ± 0.49 | 22.28 ± 0.18 min⁻¹ | do not affect the BEA | 0 | − | no modulation on the 5-HT3R expression; also recorded: no 5-HT3 expression observed | > 300 | 329 ± 20.4 | 265 ± 20.2 |  |  |  | 
CC(C)C(Cc1ccccc1)NC(=O)c1ccccc1Cl (centres unmarked) [Compound 4c, 2-Chloro-N-(3-methyl-1-phenylbutan-2-yl)benzamide] | 5.34 ± 0.20 | 1.56 ± 0.17 mV | 4.42 ± 0.41 | 26.16 ± 0.26 min⁻¹ | do not affect the BEA | 0 | − | no modulation on the 5-HT3R expression; also recorded: no 5-HT3 expression observed | > 300 | 367 ± 8.4 | 266 ± 16.8 |  |  |  | 
CC(C)C(Cc1ccccc1)NC(=O)Cc1ccccc1 (centres unmarked) [Compound 4d, N-(3-methyl-1-phenylbutan-2-yl)-2-phenylacetamide] | 4.97 ± 0.29 | 0 * mV | 4.82 ± 0.24 | 0 * min^−1 |  | 0 | + | very weak non-specific effect; also recorded: weak 5-HT3 expression observed | > 300 | 244 ± 18.5 | 328 ± 15.9 |  |  |  | 
NCCc1c[nH]c2ccc(O)cc12 [Compound 5-HT, 5-hydroxytryptamine, reference compound] |  |  |  |  |  |  |  | higher number of 5-HT3R positive cells per section and 5-HT3 expression observed in the myenteric plexus |  |  |  | ++ |  |  | 
CCN(CCCCOC(=O)c1ccc(OC)c(OC)c1)C(C)Cc1ccc(OC)cc1 (centres unmarked) [Mebeverine hydrochloride, mebeverine hydrochloride, reference compound] |  |  |  |  |  |  |  | weak 5-HT3 expression observed | > 300 | 85.4 ± 8.3 | 72 ± 6.2 |  | just under the hundred-micromolar range | just under the hundred-micromolar range | did not show any antimicrobial activity
